In patent publication US20230265151A1, “GIP/GLP1 CO-AGONIST COMPOUNDS” (priority 2020, published 2023) one finds EC50, Ki and Emax data, which are given here for three compounds.

One experiment deals with hGLP-1R (Homo sapiens, UniProt P43220). Put plainly: Functional cAMP formation (HTRF) in HEK-293 clonal cells expressing hGLP-1R, 0.1% bovine casein, without or with 1.0% human serum albumin. The format is cell-based. Also noted: expressed in transfected cells. The settings on record: for EC50: geometric mean, read-out: hGLP-1R EC50, nM (SEM, n); for Emax: read-out: hGLP-1R Emax, % ± SEM. In short, it runs like this:
(§1)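 Readings of the HTRF 665/620 nm ratio, which falls as cAMP rises, were converted to nM cAMP using a standard curve after 30 min peptide exposure at 37° C.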

The target in the next experiment is T1, hGCGR (Homo sapiens, UniProt P47871).
T1 construct: expressed in transfected cells
T1 sequence (P47871 26-477): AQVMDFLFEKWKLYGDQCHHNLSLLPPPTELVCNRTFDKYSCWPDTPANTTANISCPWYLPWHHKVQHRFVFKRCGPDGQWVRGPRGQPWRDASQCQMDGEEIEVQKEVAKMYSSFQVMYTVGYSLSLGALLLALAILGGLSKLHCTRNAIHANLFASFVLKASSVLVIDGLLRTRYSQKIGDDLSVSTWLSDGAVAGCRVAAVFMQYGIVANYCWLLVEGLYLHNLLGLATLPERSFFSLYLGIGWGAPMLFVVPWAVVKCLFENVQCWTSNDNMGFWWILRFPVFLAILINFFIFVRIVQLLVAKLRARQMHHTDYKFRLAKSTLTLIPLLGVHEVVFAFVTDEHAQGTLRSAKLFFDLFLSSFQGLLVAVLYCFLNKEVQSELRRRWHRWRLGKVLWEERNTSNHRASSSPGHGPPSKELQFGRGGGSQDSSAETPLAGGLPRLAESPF
Put plainly: Functional cAMP formation (HTRF) in HEK-293 clonal cells expressing hGCGR, 0.1% bovine casein, without or with 1.0% human serum albumin. The format is cell-based. The settings on record: geometric mean, read-out: hGCGR EC50, nM (SEM, n). The gist of the method: as §1

The target of experiment [1] is T2, human Gcg receptor (hGcgR) (Homo sapiens, UniProt P47871).
T2 construct: expressed in transfected cells; crude membranes
T2 sequence (P47871 26-477): as above
In words: [125I]-Glucagon binding, SPA with membranes of HEK293 cells expressing hGcgR. The following applies: human GcgR; geometric mean (SEM, n); read-out: Binding Affinity Ki, nM (SEM, n) hGCGR. How it is done:
Two methods are used for the preparation of crude cell membranes.
Method 1: Frozen cell pellets are lysed on ice in hypotonic buffer containing 50 mM Tris HCl, pH 7.5, and Roche Complete™ Protease Inhibitors with EDTA. […] The homogenate is centrifuged at 4° C. at 1100 × g for 10 minutes. The supernatant is collected and stored on ice while the pellets are resuspended in homogenization buffer and rehomogenized as described above. The homogenate is centrifuged at 1100 × g for 10 minutes. The second supernatant is combined with the first supernatant and centrifuged at 35000 × g for 1 hour at 4° C. The resulting membrane pellet is resuspended in homogenization buffer containing protease inhibitors at approximately 1 to 3 mg/mL, quick frozen in liquid nitrogen and stored as aliquots in a -80° C. freezer until use.
The homogenate is centrifuged at 4° C. at 1800 × g for 15 minutes. The supernatant is collected and stored on ice while the pellets are resuspended in homogenization buffer (without DNAse I) and rehomogenized as described above. The homogenate is centrifuged at 1800 × g for 15 minutes. The second supernatant is combined with the first supernatant and centrifuged an additional time at 1800 × g for 15 minutes. The overall supernatant is then centrifuged at 25000 × g for 30 minutes at 4° C. The resulting membrane pellet is resuspended in homogenization buffer (without DNAse I) containing protease inhibitors at approximately 1 to 3 mg/mL and stored as aliquots in a -80° C. freezer until use.
The human Gcg receptor binding assays are performed using a Scintillation Proximity Assay (SPA) format with wheat germ agglutinin (WGA) beads (Perkin Elmer). The binding buffer contains 25 mM 4-(2-hydroxyethyl)-1-piperazineethanesulfonic acid (HEPES), pH 7.4, 2.5 mM CaCl2, 1 mM MgCh, 0.1% (w/v) bacitracin (Research Products), 0.003% (w/v) Polyoxyethylenesorbitan monolaurate (TWEEN®-20), and Roche Complete™ Protease Inhibitors without EDTA. […] Next, 5 µL serially diluted compound or DMSO is transferred into Corning® 3632 clear bottom assay plates containing 45 µL assay binding buffer or unlabeled Gcg control (non-specific binding or NSB, at 1 µM final). […] Plates are sealed and mixed on a plate shaker (setting 6) for 1 minute and read with a PerkinElmer Trilux MicroBeta® scintillation counter after 12 hours of incubation/settling time at room temperature.
Raw CPM data for concentration curves of peptides, Gcg, GLP-1, or GIP are converted to percent inhibition by subtracting nonspecific binding (binding in the presence of excess unlabeled Gcg, GLP-1, or GIP, respectively) from the individual CPM values and dividing by the total binding signal, also corrected by subtracting nonspecific binding. Data are analyzed using four-parameter (curve maximum, curve minimum, IC50, Hill slope) nonlinear regression routines (Genedata Screener, version 12.0.4, Genedata AG, Basal, Switzerland). […] Values for Ki are reported as the geometric mean, with error expressed as the standard error of the mean (SEM) and n is equal to the number of independent replicates (determined in assays performed on different days). Geometric Means are calculated as follows: […]
The Ki Ratio (Ki for native control peptide/Ki for test compound) at each receptor and each species is calculated. The Ki Ratio is a rapid indication of the apparent affinity of a peptide compared to the native control peptide.
n=⅟x means that only one value out of the total number of replicates (x) is used to express the mean. SEM is only calculated when n=2 or greater non-qualified results exist. Means are expressed as GeoMetric means with the standard error of the mean (SEM) and the number of replicates (n) indicated in parenthesis.

Another experiment has as its target T3, hGIPR (Homo sapiens, UniProt P48546).
T3 construct: expressed in transfected cells
T3 sequence (P48546 22-466): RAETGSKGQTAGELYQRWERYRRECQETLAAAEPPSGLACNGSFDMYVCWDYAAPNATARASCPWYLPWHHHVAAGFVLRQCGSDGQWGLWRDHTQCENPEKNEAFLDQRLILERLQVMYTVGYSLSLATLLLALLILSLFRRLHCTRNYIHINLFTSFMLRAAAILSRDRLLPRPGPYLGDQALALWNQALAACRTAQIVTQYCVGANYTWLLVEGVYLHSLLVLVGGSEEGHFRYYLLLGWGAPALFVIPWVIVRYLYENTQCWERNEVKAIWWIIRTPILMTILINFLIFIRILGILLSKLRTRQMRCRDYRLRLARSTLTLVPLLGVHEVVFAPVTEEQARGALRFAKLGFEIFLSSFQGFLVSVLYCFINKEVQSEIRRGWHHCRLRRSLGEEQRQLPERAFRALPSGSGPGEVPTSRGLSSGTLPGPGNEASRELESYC
Put plainly: Functional cAMP formation (HTRF) in HEK-293 clonal cells expressing hGIPR, 0.1% bovine casein, without or with 1.0% human serum albumin. The format is cell-based. The settings on record: for EC50: geometric mean, read-out: hGIPR EC50, nM (SEM, n); for Emax: read-out: hGIPR Emax, % ± SEM. The gist of the method: as §1

[2] abbreviates: cAMP, incubated at 37° C., 0.1% bovine casein (no human serum albumin).
Setting [3] is: 0.1% bovine casein and 1.0% human serum albumin, 37° C.
The mark [4] stands for this setting: HEK293, 0.1% bovine casein and 1.0% human serum albumin, 37° C., percent of maximal response to GIP(1-42)NH2.
Setting [5] is: HEK293, percent of maximal response to GIP(1-42)NH2, 37° C., 0.1% bovine casein, arithmetic mean.
The mark [6] stands for this setting: HEK293, 0.1% bovine casein and 1.0% human serum albumin, 37° C., percent of maximal response to GLP-1(7-36)NH2.

Like-named read-outs stand apart in the source and are kept apart here.

Sequence of hGLP-1R (P43220 24-463): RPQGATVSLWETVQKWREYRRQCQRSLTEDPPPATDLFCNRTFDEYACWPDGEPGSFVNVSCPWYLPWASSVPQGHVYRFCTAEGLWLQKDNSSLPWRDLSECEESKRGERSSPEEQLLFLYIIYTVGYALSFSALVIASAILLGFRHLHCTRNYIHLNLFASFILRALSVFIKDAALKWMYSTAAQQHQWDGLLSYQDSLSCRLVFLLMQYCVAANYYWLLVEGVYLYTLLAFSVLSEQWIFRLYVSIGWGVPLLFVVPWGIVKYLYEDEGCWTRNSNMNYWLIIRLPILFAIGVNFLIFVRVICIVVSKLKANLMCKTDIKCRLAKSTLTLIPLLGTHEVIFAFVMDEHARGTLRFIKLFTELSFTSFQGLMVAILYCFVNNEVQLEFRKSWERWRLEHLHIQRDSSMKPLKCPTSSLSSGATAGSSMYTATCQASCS

Regarding `CC[C@H](C)[C@H](NC(=O)[C@H](CC(C)C)NC(=O)[C@](C)(Cc1ccc(O)cc1)NC(=O)[C@@H](CCC(=O)O)NC(=O)[C@@H](NC(=O)[C@H](Cc1ccccc1)NC(=O)[C@H](CCC(=O)O)NC(=O)C(C)(C)NC(=O)[C@H](CCC(N)=O)NC(=O)[C@H](C)NC(=O)[C@H](CCCCNC(=O)COCCOCCNC(=O)COCCOCCNC(=O)CC[C@H](NC(=O)CCCCCCCCCCCCC(=O)O)C(=O)O)NC(=O)[C@H](CCCN)NC(=O)[C@H](CC(=O)O)NC(=O)[C@H](CC(C)C)NC(=O)[C@](C)(CC(C)C)NC(=O)[C@H](CCCCNC(=O)COCCOCCNC(=O)COCCOCCNC(=O)CC[C@H](NC(=O)CCCCCCCCCCCCC(=O)O)C(=O)O)NC(=O)[C@H](CO)NC(=O)[C@H](Cc1ccncc1)NC(=O)[C@H](CC(=O)O)NC(=O)[C@H](CO)NC(=O)[C@@H](NC(=O)[C@](C)(Cc1ccccc1F)NC(=O)[C@@H](NC(=O)CNC(=O)[C@H](CCC(=O)O)NC(=O)C(C)(C)NC(=O)[C@@H](N)Cc1ccc(O)cc1)[C@@H](C)O)[C@@H](C)O)[C@@H](C)CC)C(=O)N[C@@H](CCC(=O)O)C(=O)NCC(=O)NCC(=O)N1CCC[C@H]1C(=O)N[C@@H](CO)C(=O)N[C@@H](CO)C(=O)NCC(=O)N[C@@H](C)C(=O)N1CCC[C@H]1C(=O)N1CCC[C@H]1C(=O)N1CCC[C@H]1C(=O)N[C@@H](CO)C(N)=O` [Example 28], the EC50 was 2.65 nM on hGLP-1R (setting [2]), greater than 9950 nM on hGCGR (setting [3]), greater than 9950 nM on hGCGR (setting [2]) and 2.08 nM at hGIPR (setting [3]). In addition, in experiment [1], the Ki was greater than 966 nM. Moreover, the figures for the Emax at hGIPR (setting [4]) and on hGIPR (setting [5]) were 93 ± 7.02% and 95.4 ± 1.58%, respectively.
`CC[C@H](C)[C@H](NC(=O)[C@H](CC(C)C)NC(=O)[C@](C)(Cc1ccc(O)cc1)NC(=O)[C@@H](CCC(=O)O)NC(=O)[C@@H](NC(=O)[C@H](Cc1ccccc1)NC(=O)[C@H](CCC(=O)O)NC(=O)C(C)(C)NC(=O)[C@H](CCC(N)=O)NC(=O)[C@H](C)NC(=O)[C@H](CCCCNC(=O)COCCOCCNC(=O)CC[C@H](NC(=O)COCCOCCNC(=O)CCCCCCCCCCCCC(=O)O)C(=O)O)NC(=O)[C@H](CCCN)NC(=O)[C@H](CC(=O)O)NC(=O)[C@H](CC(C)C)NC(=O)[C@](C)(CC(C)C)NC(=O)[C@@H](NC(=O)[C@H](CO)NC(=O)[C@H](Cc1ccncc1)NC(=O)[C@H](CC(=O)O)NC(=O)[C@H](CO)NC(=O)[C@@H](NC(=O)[C@](C)(Cc1ccccc1F)NC(=O)[C@@H](NC(=O)CNC(=O)[C@H](CCC(=O)O)NC(=O)C(C)(C)NC(=O)[C@@H](N)Cc1ccc(O)cc1)[C@@H](C)O)[C@@H](C)O)[C@@H](C)CC)[C@@H](C)CC)C(=O)N[C@@H](CCC(=O)O)C(=O)NCC(=O)NCC(=O)N[C@@H](CCCCNC(=O)COCCOCCNC(=O)CC[C@H](NC(=O)COCCOCCNC(=O)CCCCCCCCCCCCC(=O)O)C(=O)O)C(=O)N[C@@H](CO)C(=O)N[C@@H](CO)C(=O)NCC(=O)N[C@@H](C)C(=O)N1CCC[C@H]1C(=O)N1CCC[C@H]1C(=O)N1CCC[C@H]1C(=O)N[C@@H](CO)C(N)=O` [Example 43]: the EC50 was 35.6 nM at hGLP-1R (setting [3]); greater than 9950 nM on hGCGR (setting [3]); greater than 9950 nM at hGCGR (setting [2]); 0.375 nM at hGIPR (setting [3]); 0.0123 nM on hGIPR (setting [2]). For the same compound, the Emax on hGLP-1R (setting [6]) worked out at 98.7%. For the same compound, the Ki in experiment [1] was greater than 957 nM.
Consider `CC[C@H](C)[C@H](NC(=O)[C@H](CC(C)C)NC(=O)[C@](C)(Cc1ccccc1)NC(=O)[C@@H](CCC(=O)O)NC(=O)[C@@H](NC(=O)[C@H](Cc1ccccc1)NC(=O)[C@H](CCC(=O)O)NC(=O)C(C)(C)NC(=O)[C@H](CCC(N)=O)NC(=O)[C@H](C)NC(=O)[C@H](CCCCNC(=O)COCCOCCNC(=O)COCCOCCNC(=O)CC[C@H](NC(=O)CCCCCCCCCCCCC(=O)O)C(=O)O)NC(=O)[C@H](CCCN)NC(=O)[C@H](CC(=O)O)NC(=O)[C@H](CC(C)C)NC(=O)[C@](C)(CC(C)C)NC(=O)[C@@H](NC(=O)[C@H](CO)NC(=O)[C@H](Cc1ccncc1)NC(=O)[C@H](CC(=O)O)NC(=O)[C@H](CO)NC(=O)[C@@H](NC(=O)[C@](C)(Cc1ccccc1)NC(=O)[C@@H](NC(=O)CNC(=O)[C@H](CCC(=O)O)NC(=O)C(C)(C)NC(=O)[C@@H](N)Cc1ccc(O)cc1)[C@@H](C)O)[C@@H](C)O)[C@@H](C)CC)[C@@H](C)CC)C(=O)N[C@@H](CCC(=O)O)C(=O)NCC(=O)NCC(=O)N[C@@H](CCCCNC(=O)COCCOCCNC(=O)COCCOCCNC(=O)CC[C@H](NC(=O)CCCCCCCCCCCCC(=O)O)C(=O)O)C(=O)N[C@@H](CO)C(=O)N[C@@H](CO)C(=O)NCC(=O)N[C@@H](C)C(=O)N1CCC[C@H]1C(=O)N1CCC[C@H]1C(=O)N1CCC[C@H]1C(=O)N[C@@H](CO)C(N)=O` [Example 48], for which the Emax at hGLP-1R (setting [6]) is 111%; on hGLP-1R (HEK293, percent of maximal response to GLP-1(7-36)NH2, 37° C., 0.1% bovine casein, arithmetic mean) it was 87.8 ± 6.25%; on hGIPR (setting [4]) it was 90.8%; at hGIPR (setting [5]) it was 91.6 ± 3.38%. Further, the EC50 on hGLP-1R (setting [2]) was 1 nM; at hGCGR (setting [3]), greater than 9950 nM; at hGCGR (setting [2]) it was greater than 9950 nM; at hGIPR (setting [2]) it was 0.0182 nM. Further, the Ki in experiment [1] was greater than 966 nM.
